Source: PMC7671950 (Cellular and molecular neurobiology, 2020)
Like-named read-outs stand apart in the source and are kept apart here.

How the values were obtained:
[1] = target: T1, mMOR-1 (Mus musculus, UniProt P42866); assay: [35S]GTPγS functional assay; assay type: biochemical; conditions: for functional character at MOR-1: [35S]GTPγS functional assays; for Emax: read-out: mMOR-1 Emax; for mMOR-1 Emax: percent maximal stimulation relative to DAMGO at 1000 nM
[2] = target: T2, 6TM/E11 (Mus musculus, UniProt P42866)
T2 sequence (P42866 95-386 limits assumed): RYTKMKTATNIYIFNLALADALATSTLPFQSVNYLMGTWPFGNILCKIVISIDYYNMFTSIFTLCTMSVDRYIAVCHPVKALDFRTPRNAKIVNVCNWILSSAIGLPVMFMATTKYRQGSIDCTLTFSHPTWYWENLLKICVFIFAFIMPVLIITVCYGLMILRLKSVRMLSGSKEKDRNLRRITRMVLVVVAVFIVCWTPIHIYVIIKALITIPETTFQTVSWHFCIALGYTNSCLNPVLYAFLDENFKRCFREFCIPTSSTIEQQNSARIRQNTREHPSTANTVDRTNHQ

[3] = target: T1, mMOR-1; conditions: read-out: Ki mMOR-1; values from literature; ref Majumdar et al. 2012; cited from earlier work
[4] = target: mDOR-1 (Mus musculus, UniProt P32300); conditions: read-out: Ki mDOR-1; values from literature; ref Majumdar et al. 2012; cited from earlier work
Sequence of mDOR-1 (P32300 whole entry): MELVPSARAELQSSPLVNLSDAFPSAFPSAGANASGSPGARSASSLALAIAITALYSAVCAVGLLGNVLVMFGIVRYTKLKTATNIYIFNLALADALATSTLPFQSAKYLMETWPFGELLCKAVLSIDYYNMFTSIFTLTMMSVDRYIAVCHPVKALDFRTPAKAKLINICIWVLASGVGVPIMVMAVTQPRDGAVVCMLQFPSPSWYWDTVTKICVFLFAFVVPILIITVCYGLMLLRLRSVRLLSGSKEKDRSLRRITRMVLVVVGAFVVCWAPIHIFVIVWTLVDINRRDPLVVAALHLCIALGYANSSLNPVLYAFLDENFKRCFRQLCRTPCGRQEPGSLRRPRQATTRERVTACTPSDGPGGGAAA

[5] = target: mKOR-1 (Mus musculus, UniProt P33534); conditions: read-out: Ki mKOR-1; values from literature; ref Majumdar et al. 2012; cited from earlier work
Sequence of mKOR-1 (P33534 whole entry): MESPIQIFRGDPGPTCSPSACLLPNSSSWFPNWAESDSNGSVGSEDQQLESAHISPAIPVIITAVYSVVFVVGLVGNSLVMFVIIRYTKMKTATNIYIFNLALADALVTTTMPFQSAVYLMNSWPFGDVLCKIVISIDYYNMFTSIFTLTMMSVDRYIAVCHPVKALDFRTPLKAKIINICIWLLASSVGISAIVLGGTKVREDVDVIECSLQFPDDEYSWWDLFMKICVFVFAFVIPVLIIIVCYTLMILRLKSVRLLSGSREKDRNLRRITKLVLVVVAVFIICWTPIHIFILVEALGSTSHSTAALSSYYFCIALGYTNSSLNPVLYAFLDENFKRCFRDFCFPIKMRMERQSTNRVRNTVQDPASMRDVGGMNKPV

[6] = target: T2, 6TM/E11; conditions: read-out: Ki 6TM/E11; values from literature; ref Majumdar et al. 2012; cited from earlier work
[7] = target: triple knockout mouse brain (Mus musculus, UniProt P42866); conditions: read-out: Ki Triple KO; values from literature; ref Majumdar et al. 2012; cited from earlier work
Sequence of triple knockout mouse brain (P42866 96-398): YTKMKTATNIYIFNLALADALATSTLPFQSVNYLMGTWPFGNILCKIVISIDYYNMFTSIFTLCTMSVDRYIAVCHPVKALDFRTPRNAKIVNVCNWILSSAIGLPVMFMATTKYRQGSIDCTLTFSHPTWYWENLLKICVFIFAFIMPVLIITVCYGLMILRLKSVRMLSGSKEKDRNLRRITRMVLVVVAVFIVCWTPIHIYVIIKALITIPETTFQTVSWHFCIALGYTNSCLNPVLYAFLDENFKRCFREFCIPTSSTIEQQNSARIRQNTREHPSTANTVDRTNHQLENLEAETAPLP

[8] = read-out: mMOR-1 EC50, [35S]GTPγS binding, mean ± SEM, 3 replications

T1 sequence (P42866 whole entry): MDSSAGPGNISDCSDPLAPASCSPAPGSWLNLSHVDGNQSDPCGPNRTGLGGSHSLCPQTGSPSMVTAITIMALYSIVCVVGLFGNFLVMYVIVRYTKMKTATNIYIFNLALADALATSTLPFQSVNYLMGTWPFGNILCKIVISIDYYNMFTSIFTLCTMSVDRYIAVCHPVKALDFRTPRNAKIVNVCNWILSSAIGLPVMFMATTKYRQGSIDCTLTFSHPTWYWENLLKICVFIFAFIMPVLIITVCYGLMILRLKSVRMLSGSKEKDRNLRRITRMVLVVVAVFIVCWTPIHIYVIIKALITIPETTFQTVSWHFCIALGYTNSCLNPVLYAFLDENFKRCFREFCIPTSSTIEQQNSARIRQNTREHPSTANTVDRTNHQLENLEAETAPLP

## C=CCN1CC[C@]23c4c5ccc(O)c4O[C@H]2[C@H](NC(=O)c2ccc(N=[N+]=[N-])c(I)c2)CC[C@@]3(O)[C@H]1C5 [IBzA 10, N-((4R,4aS,7R,7aR,12bS)-3-Allyl-4a,9-dihydroxy-2,3,4,4a,5,6,7,7a-octahydro-1H-4,12-methanobenzofuro[3,2-e]isoquinolin-7-yl)-4-azido-3-iodobenzamide]
[1]
  EC50: 0.86 ± 0.24 nM
  functional character at MOR-1: full agonists
  Emax: 122 ± 3%
[2]
  Ki: 4.64 ± 0.2 nM

## C#CCN1CC[C@]23c4c5ccc(O)c4O[C@H]2[C@H](NC(=O)c2ccc(N=[N+]=[N-])c(I)c2)CC[C@@]3(O)[C@H]1C5 [Alkynyl-IBzA 17, 4-Azido-N-((4R,4aS,7R,7aR,12bS)-4a,9-dihydroxy-3-(prop-2-yn-1-yl)-2,3,4,4a,5,6,7,7a-octahydro-1H-4,12-methanobenzofuro[3,2-e]isoquinolin-7-yl)-3-iodobenzamide]
[1]
  EC50: 1.1 ± 0.1 nM
  functional character at MOR-1: full agonists
  Emax: 103 ± 3%
[2]
  Ki: 12 ± 1.63 nM

## C=CCN1CC[C@]23c4c5ccc(O)c4O[C@H]2[C@H](NC(=O)c2cccc(I)c2)CC[C@@]3(O)[C@H]1C5 [IBNalA]
[1]; mean ± SEM
  mMOR-1 Emax: 75 ± 3.5%
[1]; [8]
  EC50: 1.4 ± 0.3 nM
[3]
  Ki: 0.22 ± 0.12 nM
[4]
  Ki: 2.55 ± 0.18 nM
[5]
  Ki: 0.08 ± 0.06 nM
[6]
  Ki: 0.25 ± 0.12 nM

## O=C(N[C@@H]1CC[C@@]2(O)[C@H]3Cc4ccc(O)c5c4[C@@]2(CCN3CC2CC2)[C@H]1O5)c1cccc(I)c1 [IBNtxA, 3’-iodobenzoylnaltrexamide]
[1]; mean ± SEM
  mMOR-1 Emax: 101 ± 3%
[1]; [8]
  EC50: 0.49 ± 0.12 nM
[3]
  Ki: 0.11 ± 0.02 nM
[4]
  Ki: 0.24 ± 0.1 nM
[5]
  Ki: 0.03 ± 0.001 nM
[7]
  Ki: 0.12 ± 0.04 nM
[6]
  Ki: 0.16 ± 0.04 nM
